Measurements: patent publication US12162888B2, “Carboxamides as ubiquitin-specific protease inhibitors” (Valo Early Discovery, Inc., priority 2018, dated 2024)

Target: T1, USP25 (USP25-His6, Boston Biochem E-546) (Homo sapiens, UniProt Q9UHP3)
T1 construct: His6 (C); purchased Boston Biochem E-546
T1 sequence (Q9UHP3 1-1055): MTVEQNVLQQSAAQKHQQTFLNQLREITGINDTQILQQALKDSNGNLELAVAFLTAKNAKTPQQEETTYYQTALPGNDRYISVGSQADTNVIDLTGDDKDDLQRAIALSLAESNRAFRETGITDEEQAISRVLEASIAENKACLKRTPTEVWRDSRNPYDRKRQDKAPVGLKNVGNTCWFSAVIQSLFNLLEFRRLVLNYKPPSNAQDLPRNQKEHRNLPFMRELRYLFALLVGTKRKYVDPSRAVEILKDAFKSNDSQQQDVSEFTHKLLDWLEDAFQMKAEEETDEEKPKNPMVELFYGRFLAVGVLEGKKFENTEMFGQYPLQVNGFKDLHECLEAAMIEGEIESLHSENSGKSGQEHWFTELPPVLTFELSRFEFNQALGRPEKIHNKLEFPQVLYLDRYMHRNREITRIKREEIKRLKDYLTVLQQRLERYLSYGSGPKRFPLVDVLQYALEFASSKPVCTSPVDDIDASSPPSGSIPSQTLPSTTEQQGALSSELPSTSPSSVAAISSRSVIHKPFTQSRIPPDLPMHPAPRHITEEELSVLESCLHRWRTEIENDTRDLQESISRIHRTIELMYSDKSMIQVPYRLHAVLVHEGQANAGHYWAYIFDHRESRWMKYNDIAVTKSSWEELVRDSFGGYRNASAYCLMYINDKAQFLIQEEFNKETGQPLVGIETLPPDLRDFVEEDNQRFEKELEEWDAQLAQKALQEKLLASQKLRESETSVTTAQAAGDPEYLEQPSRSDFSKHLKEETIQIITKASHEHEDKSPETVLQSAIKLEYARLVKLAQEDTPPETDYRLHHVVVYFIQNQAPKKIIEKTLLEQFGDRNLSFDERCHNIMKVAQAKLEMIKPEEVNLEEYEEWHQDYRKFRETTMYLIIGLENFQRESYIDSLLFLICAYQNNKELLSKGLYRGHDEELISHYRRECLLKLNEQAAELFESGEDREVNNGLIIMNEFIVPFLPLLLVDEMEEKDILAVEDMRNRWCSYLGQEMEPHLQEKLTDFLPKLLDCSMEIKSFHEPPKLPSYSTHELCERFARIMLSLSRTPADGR
Experiment: Ubiquitin-Rhodamine 110 Assay for USP25 Activity, Example A-3
Format: biochemical
Conditions: Ubiquitin-Rhodamine 110 assay, Example A-3; read-out: USP25 A-3 IC50 range
Method in brief: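 USP25-His6 ([…] final as stated) preincubated 30 min with compound (10-point, 25 μM to 1.3 nM), then Ub-Rh110 at 25 nM (<<Km) added in pH 8.0 Tris buffer with BME, BGG and Triton X-100. Reaction stopped after 45 min at room temperature with 10 mM citric acid; fluorescence read at 485/535 nm.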

First: [2H]C1([2H])c2c(F)cc(N3CCNCC3)cc2OC[C@@H]1NC(=O)c1sc2nc(C)ccc2c1N (single isomer, unassigned) [Example 33-1]
Second: Cc1ccc2c(N)c(C(=O)N[C@H]3CCc4cc(N5CCNCC5)ccc4C3)sc2n1 (single isomer, unassigned) [Example 11-21]
The IC50 of the first is lower: 200 to 2000 nM for the first, greater than 2000 nM for the second.

`Cc1ccc2c(N)c(C(=O)N[C@@H]3CCc4cc(N5CCNCC5)ccc4C3)sc2n1` (single isomer, unassigned) [Example 11-22] and `Cc1cnc2c(N)c(C(=O)N[C@H]3CCc4cc(N5C[C@@H]6C[C@H]5CN6)ccc4C3)sc2n1` (single isomer, unassigned) [Example 11-29] fall in the same range of IC50: 200 to 2000 nM for the first, 200 to 2000 nM for the second.

`Cc1cnc2c(N)c(C(=O)N[C@@H]3CCc4c(C#N)c(N5CCNCC5)cc(F)c4C3)sc2n1` (single isomer, unassigned) [Example 14-11] and `COC[C@@]1(C)CN(c2ccc3c(n2)CC[C@H](NC(=O)c2sc4nc(C)ccc4c2N)C3)C[C@H]1N` [Example 343, 3-amino-N-[(6S)-2-[(3S,4S)-4-amino-3-(methoxymethyl)-3-methylpyrrolidin-1-yl]-5,6,7,8-tetrahydroquinolin-6-yl]-6-methylthieno[2,3-b]pyridine-2-carboxamide] fall in the same range of IC50: 200 to 2000 nM for the first, 200 to 2000 nM for the second.

Same assay, conditions: biochemical IC50 range, Ubiquitin-Rhodamine 110 assay, Example A-3; read-out: USP25 A-3

`Cc1ccc2c(N)c(C(=O)N[C@H]3COc4cc(N5C[C@H](N)[C@]6(CCOC6)C5)ccc4C3)sc2n1` [Example 656, 3-amino-N-[(3R)-7-[(5S,9R)-9-amino-2-oxa-7-azaspiro[4.4]nonan-7-yl]-3,4-dihydro-2H-1-benzopyran-3-yl]-6-methylthieno[2,3-b]pyridine-2-carboxamide] and `Cc1ccc2c(N)c(C(=O)N[C@H]3CCc4cc(N5C[C@H](CF)[C@H](N)C5)ccc4C3)sc2n1` [Example 657, 3-amino-N-[(2S)-6-[(3S,4S)-3-amino-4-(fluoromethyl)pyrrolidin-1-yl]-1,2,3,4-tetrahydronaphthalen-2-yl]-6-methylthieno[2,3-b]pyridine-2-carboxamide] fall in the same range of IC50: 200 to 2000 nM for the first, 200 to 2000 nM for the second.

For `Cc1ccc2c(N)c(C(=O)N[C@H]3CCc4c(F)c(N5CC6CCC(C5)N6)cc(F)c4C3)sc2n1` (single isomer, unassigned) [Example 603], the IC50 was 1 to 50 nM.
